Irofulven sensitivity data for one compound are collected here from US12691143B2, “Method for treating cancer” (priority 2020, dated 2026).

“Also recorded” adds a separate entry of the source.

The subject of experiment [1] is MDA-MB-468 breast cancer cell line (NER deficient, ERCC4 silenced). The experiment is described as follows: In vitro drug sensitivity assay, parental vs ERCC4-complemented line. The experiment is classed as cell-based. Conditions: NER-deficient parental MDA-MB-468 compared with ERCC4-complemented counterpart. From the text: Bladder cancer cell lines were purchased from ATCC. The KE1 bladder cancer cell line is a derivative of KU19-19 in which an ERCC2 T484 mutation has been introduced by CRISPR/Cas9 gene editing as previously described (6). The MDA-MB-468 breast cancer cell line and its ERCC4-complemented derivative have been previously described (35). Small interfering RNAs (siRNAs) targeting specific NER genes as well as a non-targeting siRNA (siNTC) were purchased from Integrated DNA Technologies Inc. (Coralville, IA, USA; see Table 9 for sequences). Cells were seeded in 6-well plates and grown to 50% confluency. A transfection mixture containing siRNA diluted to a final concentration of 30 nM in Opti-MEM media containing Lipofectamine 3000 (Life Technologies; Carlsbad, CA) was then added to cells. After 48 hours, cells were trypsinized and re-aliquoted to separate wells and transfected with 15 nM siRNA for 24 hours immediately prior to viability assays performed as described below. […]
Cells were seeded in either 96-well (5,000 cells/well) or 24-well (20,000 cells/well) plates. […] Plates were scanned using a luminescence microplate reader (BioTek). […]

Experiment [2] relates to cisplatin-resistant MDA-MB-468 cell line. Briefly: In vitro drug sensitivity assay in cisplatin-resistant derivative. The experiment is classed as cell-based. The note with it: cisplatin-resistant derivative of NER-deficient MDA-MB-468. On the procedure:
Cells were seeded in either 96-well (5,000 cells/well) or 24-well (20,000 cells/well) plates. The following day, irofulven and cisplatin stock solutions were serially diluted in media and added to cells. After 48 to 72 hours, media was removed and CellTiter-Glo® reagent (Promega; Madison, WI) was added. Plates were scanned using a luminescence microplate reader (BioTek). Survival at each drug concentration was plotted as a percentage of survival in drug-free media with error bars representing the standard deviation of at least three experiments.
Platinum-based chemotherapy is a first-line treatment for numerous solid malignancies including bladder cancer, but platinum resistance frequently occurs and represents a challenging clinical problem. Although a variety of platinum resistance mechanisms have been characterized, restoration or upregulation of DNA repair is a common mechanism of resistance, particularly in HR-deficient breast and ovarian tumors^33. Mechanisms of platinum resistance in NER deficient tumors have not been characterized, and we wished to determine if acquired resistance to cisplatin would confer cross-resistance to irofulven through restoration of NER. To test this, we derived cisplatin resistance in the NER-deficient MDA-MB-468 cell line by gradual exposure to escalating doses of cisplatin (Methods).

For `CC1=C(CO)C2=C(C)C3(CC3)[C@@](C)(O)C(=O)C2=C1` [irofulven], the irofulven sensitivity result in experiment [1] was “significantly more sensitive; also recorded: dramatically higher irofulven sensitivity”; in experiment [2], “remains sensitive; also recorded: highly sensitive”.
